Test: Appetite reducing effects of coadministered procyanidin and hydroxycitric acid: voluntary food intake, placebo-controlled cross-over study
Assay type: in vivo, male Wistar rats
Conditions: 155 mg hydroxycitric acid per kg rat alone, single intragastric bolus, vs placebo, paired student t, FIG. 2
Method: The appetite suppressive effects of a combination of procyanidin (pine bark extract containing 65 wt. % procyanidin) and hydroxycitric acid (Regulator™ ex HOB Ireland, Dublin, Ireland) was tested in male Wistar rats. In a placebo-controlled cross-over study, either 13 mg procyanidin per kg rat (A), 155 mg hydroxycitric acid per kg rat (B) or 13 mg procyanidin per kg rat and 155 mg hydroxycitric acid per kg rat (C) were administered as a single bolus intragastrically at 30 min before onset of the active (dark) period.
Subsequently, voluntary food intake was recorded continuously for 48 hours. Following this period, the experiment was repeated as part of the cross-over design (that is, rats which first received the procyanidins now received the placebo and vice versa).
Results are shown as absolute cumulative food intake after 1,2 and 4 hours (see FIG. 2). Statistical analysis (paired student t) was made of the data.

Structure (SMILES): O=C(O)CC(O)(C(=O)O)C(O)C(=O)O (centres unmarked) [hydroxycitric acid]
- absolute cumulative food intake after 1, 2 and 4 hours: did not result in a significant decrease
- absolute cumulative food intake after 1, 2 and 4 hours (listed as HCA): did not show any significant appetite reducing effect

From patent US6638542B2, “Reducing appetite in mammals by administering procyanidin and hydroxycitric acid” (Nutricia N.V., priority 2001, dated 2003)
